In patent US12070452B2, “Compounds targeting HSP110 protein for cancer treatment” (INSERM (Institut National de la Santé et de la Recherche …, priority 2018, dated 2024):

What was measured:
[1] = test system: tumor-infiltrating macrophages; assay: Macrophage M1/M2-like markers in tumor slides, NOD/SCID HCT116 xenograft model; type: in vivo, mouse
Protocol: Statistical analysis has been performed by ANOVA (***=p=0.0019). FIG. 9B: M2-like markers pSTAT6 and ALOX15 were determined in tumor slides from NOD mice bearing HCT116 xenografts, treated or not with the compound 33 (related to formula (II)). Statistical analysis has been performed by ANOVA (***: p=0.0481). […] Anti-p-STAT1 (1/200; polyclonal, Cell Signaling), anti-SOCS1 (Suppressor of Cytokine Signaling protein 1, 1/200; polyclonal, Santa Cruz), and anti-NOS2 (Nitric Oxide Synthase 2, 1/200; polyclonal Santa Cruz) antibodies were used for M1-like macrophage markers. Anti-pSTAT6 (1/200; polyclonal Santa Cruz), anti-arginase-1 (1/200; polyclonal Santa Cruz) and anti-ALOX15 (Arachidonate 15-LipOXygenase, 1/200; monoclonal Santa Cruz) antibodies were used for M2-like macrophage markers. Primary antibodies were detected using Alexa fluor 488 or Alexa fluor 568-coupled secondary antibodies (1/500, Invitrogen). Nuclei were stained with 10 μl of ProLong Gold Antifade Mountant with DAPI (Molecular Probes). The same protocol was used for NOD/SCID mice except that mice were killed after 16 days after HCT116 cells injection. For the Balb/c model, mice were sacrificed at day 62 (day 1 being the first day of treatment). […] Especially the pSTAT1 relative expression measured is about 1.5 for compound 33 compared to 1.0 for the control, the NOS2 relative expression measured is about 1 for compound 33 compared to 2.5 for the control (FIG. 8A) in CT-26-Balb/c mice model. The pSTAT1 relative expression measured is about 1.5 for compound 33 compared to 0 for the control and the NOS2 relative expression measured is about 20 for compound 33 compared to 2 for the control (FIG. 8B) in NOD/SCID mice model.

HCT116 tumors = assay: Immunofluorescence of cleaved caspase-3 in HCT116 tumor slides (NOD/SCID); type: in vivo, human; conditions: NOD/SCID model
Protocol: FIG. 7C: Immunofluorescence assay of Cleaved caspase-3 (C3C) in HCT116 from NOD mice tumors treated with VEH (column on the left) or with compound 33 (column on the right). […] (Ordinate: Caspase-3 cleaved relative fluorescence in percentage). Statistical analysis has been performed by ANOVA (***=p=0.0003). Scale bar=50 μm.
(§1) Two different colorectal mouse models were used: a syngeneic model for which mouse colon cancer CT-26 cells were injected into Balb/c mice and a NOD/SCID model in which mice were implanted with human colorectal cancer HCT116 cells (FIG. 4 A-B). When the tumor reached a size of −2 mm, mice were treated intraperitoneally with the compound 33 at 5 mg/Kg (BALB/c n=11, NOD SCID n=6) or corn oil 5% DMSO (BALB/c n=10, NOD SCID n=6), every three days until the end of the experiment. The compound 33 was dissolved in DMSO, then diluted 20 times in corn oil (Sigma Aldrich-C8267) and sterilized by filtration with PTFE membrane Millex 0.2 μm (Millipore-SLFG025LS). Tumors were analyzed before reaching 2000 mm3. Treatment by compound 33 induces a decrease in tumor growth of 40% and 60% in the Balb/c and NOD mice, respectively (FIGS. 6A and 6B).

[2] = test system: mouse colon cancer CT-26 cells; assay: Tumor growth, syngeneic CT-26 model in Balb/c mice; type: in vivo; conditions: CT-26, 5 mg/Kg intraperitoneally every three days
Protocol: FIG. 6A: Tumor volume monitoring of CT26 cells in Balb/c mice control-treated (Ctrl—line with circle) and treated with the compound 33 (5 mg/kg—line with square). Animals were treated by intraperitoneally injection every three days. (Abscissa: Days from 0 to 16 in day; Ordinate: Tumor volume in mm^3 from 0 to 200 (scale 500))
as §1

[3] = test system: tumor-infiltrating macrophages; assay: Macrophage M1/M2-like markers in tumor slides, CT-26-Balb/c model; type: in vivo, mouse
Protocol: FIG. 8A: Pro-inflammatory M1-like macrophage markers pSTAT1 and NOS2 determined in tumor slides from CT-26-Balb/c mice model. Animals were treated or not every 3 days with the compound 33 (5 mg/Kg) Statistical analysis has been performed by ANOVA (***=p=0.0051). […] FIG. 9A: Anti-inflammatory macrophage M2-like markers Arg1 and pSTAT6 determined in tumor slides from CT-26-Ballb/c mice model. Animals were treated or not every 3 days with the compound 33 (5 mg/Kg). Statistical analysis has been performed by ANOVA (***=p=0.0031). […] Anti-p-STAT1 (1/200; polyclonal, Cell Signaling), anti-SOCS1 (Suppressor of Cytokine Signaling protein 1, 1/200; polyclonal, Santa Cruz), and anti-NOS2 (Nitric Oxide Synthase 2, 1/200; polyclonal Santa Cruz) antibodies were used for M1-like macrophage markers. Anti-pSTAT6 (1/200; polyclonal Santa Cruz), anti-arginase-1 (1/200; polyclonal Santa Cruz) and anti-ALOX15 (Arachidonate 15-LipOXygenase, 1/200; monoclonal Santa Cruz) antibodies were used for M2-like macrophage markers. Primary antibodies were detected using Alexa fluor 488 or Alexa fluor 568-coupled secondary antibodies (1/500, Invitrogen). Nuclei were stained with 10 μl of ProLong Gold Antifade Mountant with DAPI (Molecular Probes). The same protocol was used for NOD/SCID mice except that mice were killed after 16 days after HCT116 cells injection. For the Balb/c model, mice were sacrificed at day […] (day 1 being the first day of treatment). […] Especially the pSTAT1 relative expression measured is about 1.5 for compound 33 compared to 1.0 for the control, the NOS2 relative expression measured is about 1 for compound 33 compared to 2.5 for the control (FIG. 8A) in CT-26-Balb/c mice model. The pSTAT1 relative expression measured is about 1.5 for compound 33 compared to 0 for the control and the NOS2 relative expression measured is about 20 for compound 33 compared to 2 for the control (FIG. 8B) in NOD/SCID mice model.

[4] = NOD/SCID HCT116 model, control 1
[5] = CT-26-Balb/c model, control 1.0

COc1ccc(-c2ncc(-c3ncc(-c4cc(OC)c(OC)c(OC)c4)cc3/C=C/c3ccccc3)cc2C)cc1OC [compound 33, (E)-6′-(3,4-Dimethoxyphenyl)-5′-methyl-3-styryl-5-(3,4,5-trimethoxyphenyl)-2,3′-bipyridine]
SOCS1 expression (M1 marker) ([1]; NOD/SCID (xenograft) model): increase | pSTAT1 relative expression (M1 marker) ([1]; NOD/SCID HCT116 model, control 0): about 1.5 | ALOX15 relative expression (M2 marker) [1, 4]: about 0 | pSTAT6 relative expression (M2 marker) [1, 4]: about 0 | NOS2 relative expression (M1 marker) ([1]; NOD/SCID HCT116 model, control 2): about 20 | tumor cell apoptosis (cleaved caspase-3 staining) (HCT116 tumors): increase in tumor cell apoptosis | decrease in tumor growth [2]: 40% | SOCS1 expression (M1 marker) ([3]; Balb/c (syngeneic) model): increase | pSTAT1 relative expression (M1 marker) ([3]; CT-26-Balb/c model, 5 mg/Kg, control 1.0): about 1.5 | NOS2 relative expression (M1 marker) ([3]; CT-26-Balb/c model, 5 mg/Kg, control 2.5 as printed): about 1 | Arg1 relative expression (M2 marker) [3, 5]: about 0.5 | pSTAT6 relative expression (M2 marker) [3, 5]: about 0.5
